Reference: the supplement of paper PMC10307832

How the values were obtained:
Assay in all cases: relative viability (nuclei count vs DMSO), 5 days (fraction); higher = more cells survive
[1] = compound: CO[C@H]1C[C@@H]2CC[C@@H](C)[C@@](O)(O2)C(=O)C(=O)N2CCCC[C@H]2C(=O)O[C@H]([C@H](C)C[C@@H]2CC[C@@H](OCCO)[C@H](OC)C2)CC(=O)[C@H](C)/C=C(\C)[C@@H](O)[C@@H](OC)C(=O)[C@H](C)C[C@H](C)/C=C/C=C/C=C/1C [Everolimus] + Cc1cc(Nc2cc(N3CCN(C)CC3)nc(Sc3ccc(NC(=O)C4CC4)cc3)n2)n[nH]1 [Tozasertib] (partner 0.1 µM)
Method in brief: (§1)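 Relative viability divides the nuclei count in treated wells by that in vehicle wells. Lung cancer cell lines were seeded in 1536-well plates, dosed by pin tool the next day, and fixed and stained after 5 days in one step with final 0.05% Triton X-100, 1% formaldehyde and 1 ug/ml Hoechst. Dosing was a single drug or a fixed anchor-drug dose plus five library-drug doses (not always all listed) in √10 steps, and values are medians of duplicate plates imaged at 4×.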

[2] = compound: CO[C@H]1C[C@@H]2CC[C@@H](C)[C@@](O)(O2)C(=O)C(=O)N2CCCC[C@H]2C(=O)O[C@H]([C@H](C)C[C@@H]2CC[C@@H](OCCO)[C@H](OC)C2)CC(=O)[C@H](C)/C=C(\C)[C@@H](O)[C@@H](OC)C(=O)[C@H](C)C[C@H](C)/C=C/C=C/C=C/1C [Everolimus] + N=C(N)NC(=N)NCCc1ccccc1 [Phenformin] (partner 250 µM)
Method in brief: as §1

[3] = compound: CO[C@H]1C[C@@H]2CC[C@@H](C)[C@@](O)(O2)C(=O)C(=O)N2CCCC[C@H]2C(=O)O[C@H]([C@H](C)C[C@@H]2CC[C@@H](OCCO)[C@H](OC)C2)CC(=O)[C@H](C)/C=C(\C)[C@@H](O)[C@@H](OC)C(=O)[C@H](C)C[C@H](C)/C=C/C=C/C=C/1C [Everolimus] + CC1(C)CCC(c2ccc(Cl)cc2)=C(CN2CCN(c3ccc(C(=O)NS(=O)(=O)c4ccc(N[C@H](CCN5CCOCC5)CSc5ccccc5)c(S(=O)(=O)C(F)(F)F)c4)cc3)CC2)C1 [Navitoclax] (partner 0.5 µM)
Method in brief: as §1

[4] = compound: CO[C@H]1C[C@@H]2CC[C@@H](C)[C@@](O)(O2)C(=O)C(=O)N2CCCC[C@H]2C(=O)O[C@H]([C@H](C)C[C@@H]2CC[C@@H](OCCO)[C@H](OC)C2)CC(=O)[C@H](C)/C=C(\C)[C@@H](O)[C@@H](OC)C(=O)[C@H](C)C[C@H](C)/C=C/C=C/C=C/1C [Everolimus]
Method in brief: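 A plate was accepted only when its control CV was below 25% and the cells had doubled at least once. Viability is defined from nuclear counts as treated wells divided by vehicle wells, with the median taken across plates. That median covers lung cancer cell lines grown in 1536-well plates, dosed by pinning at five √10-spaced library-drug concentrations, and counted in MetaXpress from 4× Hoechst images after 5 days.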

Row | Cell Line | relative viability ([1]; first compound 0.01 µM) | relative viability ([1]; first compound 0.03162 µM) | relative viability ([1]; first compound 0.1 µM) | relative viability ([1]; first compound 0.3162 µM) | relative viability ([1]; first compound 1 µM) | relative viability ([2]; first compound 0.01 µM) | relative viability ([2]; first compound 0.03162 µM) | relative viability ([2]; first compound 0.1 µM) | relative viability ([2]; first compound 0.3162 µM) | relative viability ([2]; first compound 1 µM) | relative viability ([3]; first compound 0.01 µM) | relative viability ([3]; first compound 0.03162 µM) | relative viability ([3]; first compound 0.1 µM) | relative viability ([3]; first compound 0.3162 µM) | relative viability ([3]; first compound 1 µM) | relative viability ([4]; 0.01 µM) | relative viability ([4]; 0.03162 µM) | relative viability ([4]; 0.1 µM) | relative viability ([4]; 0.3162 µM) | relative viability ([4]; 1 µM)
1 | 201T | 0.898 | 0.913 | 0.801 | 0.843 | 0.906 | 0.499 | 0.443 | 0.406 | 0.425 | 0.484 | 1 | 1.09 | 1.05 | 1.07 | 1.03 | 0.9 | 0.893 | 0.842 | 0.855 | 0.878
2 | A549 |  |  |  |  |  | 0.164 | 0.122 | 0.154 | 0.0954 | 0.157 | 0.64 | 0.455 | 0.452 | 0.474 | 0.458 | 0.602 | 0.412 | 0.371 | 0.423 | 0.399
3 | A-427 | 0.17 | 0.164 | 0.203 | 0.184 | 0.19 | 0.281 | 0.357 | 0.278 | 0.254 | 0.289 | 0.622 | 0.404 | 0.409 | 0.388 | 0.461 | 0.803 | 0.772 | 0.693 | 0.808 | 0.799
4 | ABC-1 | 0.183 | 0.172 | 0.163 | 0.193 | 0.208 | 0.223 | 0.249 | 0.21 | 0.203 | 0.264 |  |  |  |  |  | 0.604 | 0.822 | 0.781 | 0.707 | 0.875
5 | BEN | 0.462 | 0.452 | 0.491 | 0.415 | 0.354 | 0.289 | 0.249 | 0.273 | 0.24 | 0.26 | 0.0532 | 0.0623 | 0.063 | 0.0598 | 0.0645 | 0.567 | 0.358 | 0.334 | 0.46 | 0.387
6 | CAL-12T | 0.173 | 0.217 | 0.212 | 0.167 | 0.182 | 0.472 | 0.549 | 0.356 | 0.503 | 0.482 | 0.438 | 0.452 | 0.35 | 0.423 | 0.498 | 0.643 | 0.7 | 0.476 | 0.542 | 0.604
7 | COR-L23 | 0.334 | 0.324 | 0.288 | 0.255 | 0.233 | 0.368 | 0.413 | 0.395 | 0.421 | 0.424 | 0.706 | 0.597 | 0.662 | 0.636 | 0.765 | 0.858 | 0.942 | 0.869 | 0.88 | 0.684
8 | COR-L 105 | 0.312 | 0.305 | 0.332 | 0.346 | 0.292 | 0.356 | 0.387 | 0.388 | 0.435 | 0.361 | 0.574 | 0.636 | 0.616 | 0.652 | 0.57 | 0.667 | 0.682 | 0.592 | 0.552 | 0.663
9 | Calu-6 |  |  |  |  |  |  |  |  |  |  | 0.774 | 0.714 | 0.779 | 0.7 | 0.532 | 0.956 | 0.922 | 0.892 | 0.88 | 0.988
10 | ChaGo-K-1 | 0.226 | 0.208 | 0.215 | 0.215 | 0.238 | 0.532 | 0.467 | 0.394 | 0.536 | 0.568 | 1.01 | 0.558 | 0.951 | 0.837 | 1.01 | 0.976 | 0.95 | 0.865 | 0.899 | 0.974
11 | EBC-1 |  |  |  |  |  |  |  |  |  |  | 0.211 | 0.217 | 0.153 | 0.22 | 0.222 | 0.415 | 0.385 | 0.41 | 0.416 | 0.408
12 | EKVX | 0.327 | 0.333 | 0.214 | 0.257 | 0.259 | 0.242 | 0.22 | 0.22 | 0.222 | 0.25 | 0.542 | 0.75 | 0.505 | 0.514 | 0.654 | 0.628 | 0.687 | 0.544 | 0.541 | 0.573
13 | EMC-BAC-2 | 0.289 | 0.296 | 0.244 | 0.258 | 0.266 | 0.377 | 0.364 | 0.322 | 0.383 | 0.422 | 0.9 | 0.806 | 0.619 | 0.736 | 0.61 | 0.689 | 0.606 | 0.55 | 0.473 | 0.565
14 | EPLC-272H | 0.19 | 0.286 | 0.176 | 0.242 | 0.216 | 0.281 | 0.259 | 0.236 | 0.245 | 0.268 | 0.996 | 0.697 | 0.598 | 0.602 | 0.673 | 0.691 | 0.596 | 0.568 | 0.513 | 0.626
15 | H3255 | 0.597 | 0.55 | 0.412 | 0.462 | 0.402 | 0.332 | 0.271 | 0.354 | 0.363 | 0.288 | 0.252 | 0.23 | 0.188 | 0.167 | 0.148 | 0.735 | 0.664 | 0.543 | 0.528 | 0.495
